For three compounds, IC50, ΔTm and EC50 results are on record in patent US20250042895A1, “INHIBITORS OF ULK1 AND METHODS OF USE” (H. LEE MOFFITT CANCER CENTER AND RESEARCH INSTITUTE, INC., priority 2021, published 2025).

One assay addresses T1, ULK1 kinase (Homo sapiens, UniProt O75385).
T1 construct: purchased Reaction Biology
T1 sequence (O75385 1-1050): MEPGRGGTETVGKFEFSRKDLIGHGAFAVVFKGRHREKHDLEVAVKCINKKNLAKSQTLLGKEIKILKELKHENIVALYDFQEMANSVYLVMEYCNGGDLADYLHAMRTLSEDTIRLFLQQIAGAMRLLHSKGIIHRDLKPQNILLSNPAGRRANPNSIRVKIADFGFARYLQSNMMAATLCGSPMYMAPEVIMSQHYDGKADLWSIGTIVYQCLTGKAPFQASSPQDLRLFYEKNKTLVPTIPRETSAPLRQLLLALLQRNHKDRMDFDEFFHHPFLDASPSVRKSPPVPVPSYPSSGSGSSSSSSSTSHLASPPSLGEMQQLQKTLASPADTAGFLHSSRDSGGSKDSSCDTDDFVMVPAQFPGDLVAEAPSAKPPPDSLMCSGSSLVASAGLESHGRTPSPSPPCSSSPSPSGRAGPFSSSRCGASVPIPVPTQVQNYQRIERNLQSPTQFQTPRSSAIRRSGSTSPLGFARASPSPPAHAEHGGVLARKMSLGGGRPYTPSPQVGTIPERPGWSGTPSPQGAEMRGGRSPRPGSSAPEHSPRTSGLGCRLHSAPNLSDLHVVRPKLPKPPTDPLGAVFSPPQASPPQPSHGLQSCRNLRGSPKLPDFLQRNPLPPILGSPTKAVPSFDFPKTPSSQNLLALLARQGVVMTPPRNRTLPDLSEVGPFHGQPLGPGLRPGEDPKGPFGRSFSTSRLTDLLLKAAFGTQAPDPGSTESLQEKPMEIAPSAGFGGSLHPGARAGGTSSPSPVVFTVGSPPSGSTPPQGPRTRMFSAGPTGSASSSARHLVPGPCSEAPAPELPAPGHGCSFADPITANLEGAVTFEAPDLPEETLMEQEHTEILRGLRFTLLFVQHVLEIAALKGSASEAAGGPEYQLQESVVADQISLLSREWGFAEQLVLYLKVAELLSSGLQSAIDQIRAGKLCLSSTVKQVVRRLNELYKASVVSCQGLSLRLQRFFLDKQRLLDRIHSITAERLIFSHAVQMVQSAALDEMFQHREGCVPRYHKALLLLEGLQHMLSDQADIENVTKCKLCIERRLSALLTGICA
The assay can be described thus: Radiometric HotSpot kinase assay (Reaction Biology). The class given is biochemical. Particulars: activity-based ULK1 kinase assay.

The next assay has as its target T2, ULK1 kinase domain (Homo sapiens, UniProt O75385).
T2 construct: The protein expression construct of ULK1 kinase domain (1-283) was cloned; 6His-Sumo (N, cleaved yes); made in house; host or cells: E. coli BL21 star, co-expressed with lambda phosphatase
T2 sequence (O75385 1-283): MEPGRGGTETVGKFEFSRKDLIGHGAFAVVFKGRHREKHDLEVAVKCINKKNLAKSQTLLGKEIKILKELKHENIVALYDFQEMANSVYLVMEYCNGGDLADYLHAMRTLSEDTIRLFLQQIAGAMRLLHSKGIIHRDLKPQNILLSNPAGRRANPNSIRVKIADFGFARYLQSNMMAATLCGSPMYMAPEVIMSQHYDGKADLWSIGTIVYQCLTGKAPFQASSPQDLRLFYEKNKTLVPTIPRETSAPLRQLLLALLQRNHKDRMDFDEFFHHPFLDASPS
The assay can be described thus: Differential scanning fluorimetry (thermal shift). The class given is binding. The settings on record: 2 μM ULK1 kinase domain, 50 μM compound, vs DMSO reference.

The target of another assay is T3, ULK1-nanoluc (Homo sapiens, UniProt O75385).
T3 construct: host or cells: H2030 cells (ATCC)
T3 sequence (O75385 1-1050): T1 sequence (O75385 1-1050)
The assay can be described thus: NanoBRET target engagement in live cells. The class given is cell-based. Particulars: H2030 cells transfected with ULK1-nanoluc, Tracer K10, 2 hr. In general terms: In BRET a luciferase serves as donor, and the signal depends on an acceptor being close.

A further assay deals with T4, GST-ULK1 (Homo sapiens, UniProt O75385).
T4 sequence (O75385 1-1050): T1 sequence (O75385 1-1050)
The assay is described as follows: LanthaScreen ULK1 inhibitor assay. Particulars: 5 nM GST-ULK1, 30 nM tracer, 20 μM ATP, 1 hr room temperature. The class given is biochemical. (In general: In TR-FRET formats the signal depends on donor and acceptor labels being close together.)

`FC(F)(F)c1cnc2[nH]c(C3=CCOCC3)cc2c1NCCN1CCOCC1` [Compound 89, 2-(3,6-dihydro-2H-pyran-4-yl)-N-(2-morpholinoethyl)-5-(trifluoromethyl)-1H-pyrrolo[2,3-b]pyridin-4-amine]: the 50% inhibitory concentration (IC50) on ULK1 kinase is 37 nM; against GST-ULK1, 92 nM. Further, the ΔTm at 50 µM at ULK1 kinase domain stood at 8.13 °C. The compound further yielded an EC50 at ULK1-nanoluc of 1160 nM.

Turning to `CN1CC=C(c2cc3c(NC4CCNC4)c(C(F)(F)F)cnc3[nH]2)CC1` (stereo not drawn) [Compound 98, 2-(1-methyl-1,2,3,6-tetrahydropyridin-4-yl)-N-(pyrrolidin-3-yl)-5-(trifluoromethyl)-1H-pyrrolo[2,3-b]pyridin-4-amine], the IC50 on ULK1 kinase is 144 nM; at GST-ULK1 it was 57 nM. Besides, the ΔTm at 50 µM on ULK1 kinase domain was found to be 10.3 °C. The concentration for a half-maximal effect (EC50) at ULK1-nanoluc was determined as 184 nM.

For the compound `CN1CC=C(c2cc3c(NCCN4CCNCC4)c(C(F)(F)F)cnc3[nH]2)CC1` [Compound 101, 2-(1-methyl-1,2,3,6-tetrahydropyridin-4-yl)-N-(2-(piperazin-1-yl)ethyl)-5-(trifluoromethyl)-1H-pyrrolo[2,3-b]pyridin-4-amine], the values for the concentration for half-maximal inhibition (IC50) at ULK1 kinase and at GST-ULK1 were 131 nM and 50 nM, respectively. For the same compound, at ULK1 kinase domain, the ΔTm at 50 µM stood at 11 °C. The compound further gave an EC50 on ULK1-nanoluc of 157 nM.

A word on the IC50: it is the concentration that gives 50% inhibition. By ΔTm is commonly meant the change in melting temperature against a reference sample. As usually defined, the EC50 is the concentration that produces a half-maximal response.
